Reference: US20030097221A1, “Detection and characterization of psychoactives using parallel multi-site assays in brain tissue” (priority 2001, published 2003)
Values joined by “and” are separate entries in the source; they are usually repeats but may differ in a detail not shown here. Equal values may be shown once.

What was measured:
Type in all cases: cell-based, rat
[1] = system: glutamate receptor-mediated evoked excitatory synaptic transmission, hippocampal slice mossy fibers; assay: Paired-pulse evoked fEPSP, mossy fibers (assay MF50), MED64; conditions: 250 μM; 50 ms inter-pulse delay
Protocol: A 17-24 day old Sprague Dawley rat was decapitated after anesthesia with halothane (2-bromo-2-chloro-1,1,1-trifluoroethane; Sigma; B4388), and the whole brain was removed. The brain was immediately soaked for ˜2 min in ice-cold, oxygenated preparation buffer of the following composition (in mM): 124 NaCl, 26 NaHCO3, 10 glucose, 3 KCl, 1.25 NaH2PO4, 2 CaCl2, and 2 MgSO4. Appropriate portions of the brain were trimmed and placed on the ice-cold stage of a vibrating tissue slicer (Leica, Nussloch, Germany; VT-1000S). The stage was immediately filled with both oxygenated and frozen preparation buffers. The thickness of each tissue slice was 350 μm. […]
(§1) Evoked field potentials at all 64 sites (minus stimulation sites) were recorded simultaneously with the multichannel recording system (Panasonic: MED64 system) at a 20 kHz sampling rate. […]
(§2) All assays employ paired-pulse stimulation at various rat hippocampal sites to elicit evoked responses. The resulting field EPSP recordings were analyzed using Matlab software (The MathWorks, Inc.) by computing several response measures such as amplitude, halfwidth, and negative area, which apply to both the first and second evoked reponses. Amplitude was defined as the maximum depolarization magnitude relative to the average baseline reading prior to the first stimulation pulse. […]

[2] = system: glutamate receptor-mediated evoked excitatory synaptic transmission, hippocampal slice CA1; assay: Paired-pulse evoked fEPSP in CA1, Schaffer collateral stimulation (assays SC50, SC200), MED64 multi-electrode array; parameters: key to SC 50 ms Amplitude fEPSP 1st, Mean / SC 50 ms Amplitude fEPSP 2nd, Mean / SC 200 ms Widths fEPSP 1st, Mean / SC 200 ms Widths fEPSP 2nd, Mean: fractional change vs. last 5 min of pre-wash-in control phase
Protocol: (§3) A 17-24 day old Sprague Dawley rat was decapitated after anesthesia with halothane (2-bromo-2-chloro-1,1,1-trifluoroethane; Sigma; B4388), and the whole brain was removed. The brain was immediately soaked for ˜2 min in ice-cold, oxygenated preparation buffer of the following composition (in mM): 124 NaCl, 26 NaHCO3, 10 glucose, 3 KCl, 1.25 NaH2PO4, 2 CaCl2, and 2 MgSO4. Appropriate portions of the brain were trimmed and placed on the ice-cold stage of a vibrating tissue slicer (Leica, Nussloch, Germany; VT-1000S). The stage was immediately filled with both oxygenated and frozen preparation buffers. The thickness of each tissue slice was 350 μm. Each slice was gently taken off the blade, and immediately soaked in the oxygenated artificial cerebrospinal fluid (ACSF) for at least 1 hr at room temperature. Then a slice was placed on the center of the MED probe. The slice was positioned to cover the 8×8 array. After positioning the slice, the MED probe was immediately placed in a box filled with 95% O2 and 5% CO2.
During recording, the slices were continuously perfused with a solution of the following composition: ACSF (in mM): 124 NaCl, 26 NaHCO3, 10 glucose, 3 KCl, 1.25 kH2PO4, 2 CaCl2, 1 MgSO4. All compounds were bath applied at known concentrations and were prepared daily from frozen aliquots. Compounds were purchased from Sigma. Ampakines (CX516, CX546, CX554) were made fresh everyday, and used at concentrations: CX516, 250 μM; CX546, 250 μM; and CX554, 30 μM.
Baseline, application, and recovery time was usually at 10, 20, and 30 min respectively.
During electrophysiological recording, the slices on the MED probe were placed in a small CO2 incubator (Asahi Lifescience; model 4020) at 32° C. The slices were placed on an interface, and a moisturized with a 95% O2 and 5% CO2 gas mixture.
Evoked field potentials at all 64 sites (minus stimulation sites) were recorded simultaneously with the multichannel recording system (Panasonic: MED64 system) at a 20 kHz sampling rate. In the case of the evoked response, one of the planar microelectrodes out of the 64 available was used for the stimulating cathode. Bipolar constant-current pulses (10-50 μA; 0.1 ms) were produced by the data acquisition software via the isolator. The stimulating microelectrode was selected by the 64-switch box.
All assays employ paired-pulse stimulation at various rat hippocampal sites to elicit evoked responses. The resulting field EPSP recordings were analyzed using Matlab software (The MathWorks, Inc.) by computing several response measures such as amplitude, halfwidth, and negative area, which apply to both the first and second evoked reponses. Amplitude was defined as the maximum depolarization magnitude relative to the average baseline reading prior to the first stimulation pulse. Halfwidth was defined as the duration of the depolarization phase of the evoked response at half its maximum amplitude value. Negative area was obtained by taking the magnitude of the integral of the evoked response curve over all segments with the same polarity as the depolarization phase. This integral spans a time window of 25 msec beginning one msec after the stimulation pulse.
Amplitudes and halfwidths for both first and second elicited responses were computed for assays SC50, SC200, and CA3-1—50. For DG50 only first and second amplitudes were computed. Negative areas for first and second responses were computed for SC50, SC200, CA3-1—50, and MF50.
All response paramters were utilized to quantify candidate sample composition effects on the hippocampus. For a given response parameter, the candidate sample composition effect was defined as the percent change of the average measure during the last five minutes of the wash-in phase with respect to the average measure of the last five minutes of the preceding, pre-wash-in control phase. […]

[3] = system: hippocampal slice regions (CA1, DG, MF); assay: Comparison between regions of the slice, area under the curve for all 4 assays (FIG. 9); conditions: prediction drawn from the results of FIG. 9
Protocol: All assays employ paired-pulse stimulation at various rat hippocampal sites to elicit evoked responses. The resulting field EPSP recordings were analyzed using Matlab software (The MathWorks, Inc.) by computing several response measures such as amplitude, halfwidth, and negative area, which apply to both the first and second evoked reponses. Amplitude was defined as the maximum depolarization magnitude relative to the average baseline reading prior to the first stimulation pulse. Halfwidth was defined as the duration of the depolarization phase of the evoked response at half its maximum amplitude value. Negative area was obtained by taking the magnitude of the integral of the evoked response curve over all segments with the same polarity as the depolarization phase. This integral spans a time window of 25 msec beginning one msec after the stimulation pulse. […]
(§4) All response paramters were utilized to quantify candidate sample composition effects on the hippocampus. […]
To compare the response of tissue slices to candidate sample compositions between different regions of the slice, the area under the curve for all 4 assays was calculated.
To compare the effect of compounds in candidate sample compositions between different regions of a tissue slice, the area under the curve for all 4 assays was calculated. […]

[4] = system: glutamate receptor-mediated evoked excitatory synaptic transmission, hippocampal slice dentate gyrus; assay: Paired-pulse evoked fEPSP in dentate gyrus (assay DG50), MED64
Protocol: as §3, with “CO2. […]” for “CO2.”
as §1, §2
The polarity of the evoked responses for assay DG50 was reversed before analysis because of the inverted voltage values recorded by the DG50 electrode. Assays SC50, SC200, MF50, and CA3-1—50, however, were analyzed without such a reversal. […]
as §4

[5] = CX546 250 μM, individual slice files, normalized change over control
[6] = CX546 250 μM, n = 5, normalized change over control

mossy fibers' response (area) [1]: increase | half-width of both responses in CA1 ([2]; 250 μM, 50 ms or 200 ms delay between stimulation pulses): increase in the half-width | change of the first response (amplitude) ([2]; 250 μM, 50 ms protocol): no change | decrease in the second response amplitude ([2]; 250 μM, 50 ms protocol): 9±3% | effect on amplitude of both responses ([2]; 250 μM, 200 ms protocol): no effect | increase of the halfwidth of first and second fEPSP ([2]; 250 μM, 200 ms protocol, summary of Table 2): 14-15% | SC 50 ms Amplitude fEPSP 1st, Change over Control (%) ([2]; CX546 250 μM, n = 5): 3.296% | SC 50 ms Amplitude fEPSP 2nd, Change over Control (%) ([2]; CX546 250 μM, n = 5): −8.884% | SC 50 ms Widths fEPSP 1st, Change over Control (%) ([2]; CX546 250 μM, n = 5): 13.386% | SC 50 ms Widths fEPSP 2nd, Change over Control (%) ([2]; CX546 250 μM, n = 5): 3.276% | SC 200 ms Amplitude fEPSP 1st, Change over Control (%) ([2]; CX546 250 μM, n = 5): 3.764% | SC 200 ms Amplitude fEPSP 2nd, Change over Control (%) ([2]; CX546 250 μM, n = 5): 2.310% | SC 200 ms Widths fEPSP 1st, Change over Control (%) ([2]; CX546 250 μM, n = 5): 15.064% | SC 200 ms Widths fEPSP 2nd, Change over Control (%) ([2]; CX546 250 μM, n = 5): 16.206% | SC 50 ms Amplitude fEPSP 1st, Mean [2, 6]: 0.033 | SC 50 ms Amplitude fEPSP 2nd, Mean [2, 6]: −0.089 | SC 50 ms Widths fEPSP 1st, Mean [2, 6]: 0.134 | SC 50 ms Widths fEPSP 2nd, Mean [2, 6]: 0.033 | SC 200 ms Amplitude fEPSP 1st, Mean [2, 6]: 0.038 | SC 200 ms Amplitude fEPSP 2nd, Mean [2, 6]: 0.023 | SC 200 ms Widths fEPSP 1st, Mean [2, 6]: 0.151 | SC 200 ms Widths fEPSP 2nd, Mean [2, 6]: 0.162 | area of the second response (fEPSP) in CA1 ([2]; area under the curve, representative slices, FIG. 9): decreased | responses recorded in dentate gyrus (amplitude) ([4]; 250 μM, 50 ms inter-pulse delay): decrease in the amplitude | second response (fEPSP) in DG ([4]; area under the curve, representative slices, FIG. 9, CX546 250 μM, CX554 30 μM per Example 3): not noticeably altered
SMILES: O=C(c1ccc2c(c1)OCCO2)N1CCCCC1 [CX546]
kind of modulation of the responses in CA1 (halfwidth vs amplitude) ([2]; CX516, CX546 250 μM, CX554 30 μM): selectively increases halfwidth but not the amplitude | SC 50 ms Amplitude fEPSP 1st [2, 5]: 0.063 and 0.087 and 0.012 and −0.022 and 0.025 | SC 50 ms Amplitude fEPSP 2nd [2, 5]: 0.022 and −0.124 (2×) and −0.130 and −0.088 | SC 50 ms Widths fEPSP 1st [2, 5]: 0.096 and 0.155 and 0.114 and 0.202 and 0.102 | SC 50 ms Widths fEPSP 2nd [2, 5]: 0.067 and 0.026 and −0.025 and 0.065 and 0.031 | SC 200 ms Amplitude fEPSP 1st [2, 5]: 0.064 and 0.083 and 0.028 and −0.007 and 0.021 | SC 200 ms Amplitude fEPSP 2nd [2, 5]: 0.047 and 0.061 and 0.011 and −0.015 and 0.013 | SC 200 ms Widths fEPSP 1st [2, 5]: 0.089 and 0.166 and 0.141 and 0.252 and 0.105 | SC 200 ms Widths fEPSP 2nd [2, 5]: 0.102 and 0.207 and 0.180 and 0.189 and 0.132 | degree to which ampakines enhance activation of interneurons (rank order) [3]: CX554>CX546>CX516
